Tests used:
Thrips [1] = test: Thrips damage rating on cotton plants (Fibermax cotton variety 960), Example 2; type: in vivo; details: 1 = no damage, 5 = dead
Source text: This example illustrates the effect of the compositions from Table 1 for cotton plants planted in soil known to have nematode (Rotylenchulus reniformis) pressure. FIGS. 4 and 5 illustrate the Thrips damage ratings at three and four weeks, respectively, after planting. FIG. 6 illustrates the plant height seven weeks after planting. The cotton plants utilized were commercially available Fibermax cotton variety 960.

Thrips [2] = test: Thrips damage rating on cotton plants (Delta and Pineland variety 555), Example 1; type: in vivo; details: cotton variety 555, 1 = no damage, 5 = plant completely damaged (dead)
Source text: This example illustrates the effect of a composition of the invention on cotton plant damage and plant height for cotton plants planted in soil known to have nematode (Rotylenchulus reniformis) pressure. The cotton plants utilized were commercially available Delta and Pineland variety 555.
The compositions described in Table 1 below were applied either as a seed treatment (Samples B, C, and E-G) or in furrow (Sample D) at the respective application rates set forth in Table 1.

| Compound | Thrips Damage Rating (Thrips [1]; 3 weeks after planting) | Thrips Damage Rating (Thrips [1]; 4 weeks after planting) | Thrips Damage Rating (Thrips [2]; 3 weeks after planting) | Thrips Damage Rating (Thrips [2]; 4 weeks after planting) |
| --- | --- | --- | --- | --- |
| O=[N+]([O-])NC1=NCCN1Cc1ccc(Cl)nc1 [B, imidacloprid] | 2.63 | 2.5 | 2 | 2.3 |
| O=[N+]([O-])NC1=NCCN1Cc1ccc(Cl)nc1 [E, imidacloprid] | 2.88 | 3 | 2.25 | 2.4 |
| CNC(=O)O/N=C/C(C)(C)SC [Sample D, aldicarb] | 2.5 | 2.1 | 1.13 | 1.5 |

Source: patent US20090099127A1, “Nematicidal Compositions and Methods” (priority 2005, published 2009)
